Values joined by “and” are separate entries in the source; they are usually repeats but may differ in a detail not shown here. Equal entries are not always repeated. Toxic doses and inconclusive results are not listed. No stated cut-off is given here; in the data, active means T/C of 150% or more; inactive means T/C below 125%.
Test system: L1210 leukemia ip in BDF1 mice, survival T/C
Test: NCI In Vivo Anticancer Drug Screen. Data for tumor model L1210 Leukemia (intraperitoneal) in B6D2F1 (BDF1) mice
Conditions: endpoint: mean survival time, higher = longer survival
Procedure, shortened: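 Antitumor effect is assessed in tumor-bearing animals. Survival in the compound arm is compared with a vehicle-dosed control arm and expressed as their quotient.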

[1] = dose: 12.5 mg/kg/injection, schedule: Q04DX003 (ip), vehicle: Klucel (hydroxypropylcellulose) (HPC)
[2] = dose: 25.0 mg/kg/injection, schedule: Q04DX003 (ip), vehicle: Klucel (hydroxypropylcellulose) (HPC)
[3] = dose: 50.0 mg/kg/injection, schedule: Q04DX003 (ip), vehicle: Klucel (hydroxypropylcellulose) (HPC)
[4] = dose: 100.0 mg/kg/injection, schedule: Q04DX003 (ip), vehicle: Klucel (hydroxypropylcellulose) (HPC)
[5] = dose: 100.0 mg/kg/injection, schedule: Q04DX002 (ip), vehicle: saline with Tween-80
[6] = dose: 400.0 mg/kg/injection, schedule: Q04DX002 (ip), vehicle: saline with Tween-80
[7] = dose: 100.0 mg/kg/injection, schedule: Q01DX001 (ip), vehicle: saline
[8] = dose: 200.0 mg/kg/injection, schedule: Q01DX001 (ip), vehicle: saline

Measured: T/C

CCN(CC)CCCC(C)Nc1ccnc(/C=C/c2ccc(Cl)cc2)c1 (centres undefined)
inactive: dose: 12.0 mg/kg/injection, schedule: Q01DX009 (ip), vehicle: Klucel (hydroxypropylcellulose) (HPC) 92 % of control | [1] 97 % of control | dose: 25.0 mg/kg/injection, schedule: Q01DX009 (ip), vehicle: Klucel (hydroxypropylcellulose) (HPC) 100 % of control | dose: 25.0 mg/kg/injection, schedule: Q01DX009 (ip), vehicle: saline 101 % of control | [2] 103 % of control | dose: 50.0 mg/kg/injection, schedule: Q01DX009 (ip), vehicle: Klucel (hydroxypropylcellulose) (HPC) 95 % of control | dose: 50.0 mg/kg/injection, schedule: Q01DX009 (ip), vehicle: saline 95 % of control | [3] 97 % of control | dose: 75.0 mg/kg/injection, schedule: Q04DX003 (ip), vehicle: saline 105 % of control | [4] 96 % of control | dose: 300.0 mg/kg/injection, schedule: Q04DX003 (ip), vehicle: saline 93 % of control

O=C1C2=C(C(=O)C3=C1C1CCC3C1)C1CCC2C1
inactive: [5] 90 % of control | [6] 93 % of control

CC1CN(Cc2ccccc2)C(=O)N(c2ccccc2)C1=O (centres undefined)
inactive: dose: 100.0 mg/kg/injection, schedule: Q01DX Z (ip), vehicle: methylcellulose (MC) 92 % of control

CCCCCCCCCCCCCCCCCCOc1ccccc1
inactive: dose: 100.0 mg/kg/injection, schedule: Q01DX009 (sc), vehicle: olive oil, sesame oil, peanut oil 94 % of control | dose: 100.0 mg/kg/injection, schedule: Q04DX003 (sc), vehicle: olive oil, sesame oil, peanut oil 95 % of control | dose: 200.0 mg/kg/injection, schedule: Q01DX009 (sc), vehicle: olive oil, sesame oil, peanut oil 99 % of control | dose: 200.0 mg/kg/injection, schedule: Q04DX003 (sc), vehicle: olive oil, sesame oil, peanut oil 101 % of control | dose: 400.0 mg/kg/injection, schedule: Q01DX009 (sc), vehicle: olive oil, sesame oil, peanut oil 94 % of control | dose: 400.0 mg/kg/injection, schedule: Q04DX003 (sc), vehicle: olive oil, sesame oil, peanut oil 108 % of control

C=CCCN1CCCC1
inactive: dose: 1.5 mg/kg/injection, schedule: Q01DX009 (ip), vehicle: saline with Tween-80 100 % of control | dose: 3.0 mg/kg/injection, schedule: Q01DX009 (ip), vehicle: saline with Tween-80 93 % of control | dose: 6.0 mg/kg/injection, schedule: Q01DX009 (ip), vehicle: saline with Tween-80 103 % of control | dose: 8.0 mg/kg/injection, schedule: Q04DX003 (ip), vehicle: saline with Tween-80 97 % of control and 105 % of control | dose: 12.0 mg/kg/injection, schedule: Q01DX009 (ip), vehicle: saline with Tween-80 98 % of control | dose: 12.0 mg/kg/injection, schedule: Q04DX003 (ip), vehicle: saline with Tween-80 100 % of control and 105 % of control | dose: 18.0 mg/kg/injection, schedule: Q04DX003 (ip), vehicle: saline with Tween-80 103 % of control and 110 % of control | dose: 25.0 mg/kg/injection, schedule: Q01DX009 (ip), vehicle: saline with Tween-80 88 % of control | dose: 25.0 mg/kg/injection, schedule: Q04DX003 (ip), vehicle: saline with Tween-80 103 % of control | dose: 50.0 mg/kg/injection, schedule: Q04DX003 (ip), vehicle: saline with Tween-80 109 % of control

O=C1c2ccccc2C(=O)N1NS(=O)c1ccccc1 (centres undefined)
inactive: [5] 93 % of control | dose: 200.0 mg/kg/injection, schedule: Q04DX002 (ip), vehicle: saline with Tween-80 104 % of control | [6] 101 % of control

CCc1cc2oc(C)c(C)c2c2nc(C)oc12
inactive: dose: 50.0 mg/kg/injection, schedule: Q04DX002 (ip), vehicle: Klucel (hydroxypropylcellulose) (HPC) 101 % of control | dose: 100.0 mg/kg/injection, schedule: Q04DX002 (ip), vehicle: Klucel (hydroxypropylcellulose) (HPC) 99 % of control and 104 % of control | dose: 200.0 mg/kg/injection, schedule: Q04DX002 (ip), vehicle: Klucel (hydroxypropylcellulose) (HPC) 101 % of control | dose: 400.0 mg/kg/injection, schedule: Q04DX002 (ip), vehicle: Klucel (hydroxypropylcellulose) (HPC) 96 % of control

C#CC(O)c1ccccc1 (centres undefined)
inactive: [1] 94 % of control | [2] 99 % of control | [3] 101 % of control

CC1(C)N=C(N)N=C(N)N1c1ccc(OCCNC(=O)c2ccc(S(=O)(=O)F)cc2)c(Cl)c1
inactive: dose: 18.75 mg/kg/injection, schedule: Q04DX003 (ip), vehicle: saline with Tween-80 103 % of control | dose: 37.5 mg/kg/injection, schedule: Q04DX003 (ip), vehicle: saline with Tween-80 108 % of control | dose: 75.0 mg/kg/injection, schedule: Q04DX003 (ip), vehicle: saline with Tween-80 104 % of control

CCC1CN1P(=O)(N(CC)CC)N1CC1CC (centres undefined)
inactive: dose: 29.0 mg/kg/injection, schedule: Q01DX015 (ip), vehicle: saline 100 % of control | dose: 44.0 mg/kg/injection, schedule: Q01DX015 (ip), vehicle: saline 105 % of control | dose: 66.0 mg/kg/injection, schedule: Q01DX015 (ip), vehicle: saline 109 % of control | dose: 89.0 mg/kg/injection, schedule: Q01DX001 (ip), vehicle: saline 111 % of control | [7] 103 % of control | dose: 100.0 mg/kg/injection, schedule: Q01DX009 (ip), vehicle: saline 107 % of control | dose: 100.0 mg/kg/injection, schedule: Q01DX015 (ip), vehicle: saline 110 % of control | dose: 133.0 mg/kg/injection, schedule: Q01DX001 (ip), vehicle: saline 119 % of control | dose: 150.0 mg/kg/injection, schedule: Q01DX009 (ip), vehicle: saline 107 % of control | [8] 121 % of control

CC(C)(C(=O)O)C(=O)O
inactive: [7] 103 % of control | [8] 106 % of control

C[C@@H]1O[C@@H](O[C@H]2CC[C@]3(C=O)[C@H]4CC[C@]5(C)[C@@H](c6ccc(=O)oc6)CC[C@]5(O)[C@@H]4CC[C@]3(O)C2)[C@H](O)[C@H](O)[C@H]1O[C@@H]1O[C@H](CO)[C@@H](O)[C@H](O)[C@H]1O
inactive: dose: 5.0 mg/kg/injection, schedule: Q01DX001 (ip), vehicle: carboxymethylcellulose (CMC) 100 % of control | dose: 10.0 mg/kg/injection, schedule: Q01DX001 (ip), vehicle: carboxymethylcellulose (CMC) 94 % of control

Fc1c(F)c(C(F)(F)F)c(F)c(F)c1P(c1c(F)c(F)c(C(F)(F)F)c(F)c1F)c1c(F)c(F)c(C(F)(F)F)c(F)c1F
inactive: dose: 75.0 mg/kg/injection, schedule: Q01DX009 (ip), vehicle: Klucel (hydroxypropylcellulose) (HPC) 123 % of control | [4] 97 % of control | dose: 150.0 mg/kg/injection, schedule: Q01DX009 (ip), vehicle: Klucel (hydroxypropylcellulose) (HPC) 96 % of control | dose: 200.0 mg/kg/injection, schedule: Q04DX003 (ip), vehicle: Klucel (hydroxypropylcellulose) (HPC) 100 % of control | dose: 300.0 mg/kg/injection, schedule: Q01DX009 (ip), vehicle: Klucel (hydroxypropylcellulose) (HPC) 100 % of control | dose: 400.0 mg/kg/injection, schedule: Q04DX003 (ip), vehicle: Klucel (hydroxypropylcellulose) (HPC) 100 % of control

COC(=O)c1ccc(=O)n(C/C=C(\C)CCC(=O)O)c1
inactive: dose: 100.0 mg/kg/injection, schedule: Q01DX009 (ip), vehicle: water 96 % of control | dose: 100.0 mg/kg/injection, schedule: Q04DX003 (ip), vehicle: other 93 % of control | dose: 200.0 mg/kg/injection, schedule: Q01DX009 (ip), vehicle: water 102 % of control | dose: 200.0 mg/kg/injection, schedule: Q04DX003 (ip), vehicle: other 93 % of control | dose: 400.0 mg/kg/injection, schedule: Q01DX009 (ip), vehicle: water 98 % of control | dose: 400.0 mg/kg/injection, schedule: Q04DX003 (ip), vehicle: other 91 % of control

Source: PubChem BioAssay AID248 (DTP/NCI, 2004)
